Measurements taken from patent US9693828B2, “Composition comprising acetic anhydride and a gadolinium complex, and method for the use in hyperpolarisation in MRI analysis” (BRACCO IMAGING S.P.A., priority 2011, dated 2017).

Key:
[1] = DNP hyperpolarisation of acetic anhydride with Finlandic acid trityl radical, with or without gadolinium complex (solid state polarisation build up); format: physicochemical
Description: A stock solution of radical was prepared by dissolving Finlandic acid (2.7 mg, 2.6 μmol) in unlabeled acetic anhydride (22.2 mg) yielding a solution with a concentration of 105 μmol/g.

[2] = Dissolution and hydrolysis of hyperpolarised acetic anhydride, NMR time series of 1D spectra to follow signal decay; format: physicochemical
Description: A stock solution of radical was prepared by dissolving Finlandic acid (2.7 mg, 2.6 μmol) in unlabeled acetic anhydride (22.2 mg) yielding a solution with a concentration of 105 μmol/g. A part (2.1 mg) of this stock solution was mixed with 1,1′-^13C2 acetic anhydride (15 μl, 17.2 mg, 0.165 mmol) to make a 12.8 mM solution. […] The sample was dissolved in 5 ml water with added NaOH (12 M, 39 μl) and allowed to hydrolyze for 15 s and then neutralized by mixing with phosphate buffer (300 μl, 1M, pH 7.3) with addition of HCl (14 μl, 12M). The sample was transferred to an NMR spectrometer and the acquisition was started 30 s after the dissolution recording a time series of 1D spectra to follow signal decay.

[3] = 13C DNP, acetic anhydride/1,1'-13C2 acetic anhydride, Finlandic acid radical 12.5 mM, gadolinium complex added as labelled (none for acetic anhydride, Example 1), FIG. 1

| T1 of the hydrolysis product ([2]; after dissolution in water/NaOH, hydrolysis 15 s, neutralization to pH 6.8, acquisition started 30 s after dissolution) | Compound | exponential time constant of hyperpolarisation [1, 3] | exponential time constant of hyperpolarisation ([1]; Example 5: 1,1'-13C2 acetic anhydride, Finlandic acid 12.8 mM, no gadolinium complex) | hydrolysis of acetic anhydride at the start of the acquisition ([2]; 5 ml water with NaOH, 15 s hydrolysis, neutralized, acquisition 30 s after dissolution) |
| --- | --- | --- | --- | --- |
|  | CCCCCCCCCCCCCCCCCCN(CCCCCCCCCCCCCCCCCC)C(=O)CN1CCN(CC(=O)[O-])CCN(CC(=O)[O-])CCN(CC(=O)[O-])CC1.[Gd+3] [Gadolinium complex II, [10-[2-(dioctadecylamino)-2-oxoethyl]-1,4,7,10-tetraazacyclododecane-1,4,7-triacetato(3-)]gadolinium, reference compound] | 690 s |  |  |
|  | CC(O)CN1CCN(CC(=O)[O-])CCN(CC(=O)[O-])CCN(CC(=O)[O-])CC1.[Gd+3] (stereo not shown) [Gadolinium complex III, [10-(2-hydroxypropyl)-1,4,7,10-tetraazacyclododecane-1,4,7-triacetato(3-)]gadolinium, reference compound] | 750 s |  |  |
|  | CC(=O)OC(C)=O [acetic anhydride] | 670 s | 525 s | complete |
| 45 s | CC(=O)O [hydrolysis product, acetic acid] |  |  |  |
|  | [[α1,α4,α7-tris[(phenylmethoxy)methyl]-1,4,7,10-tetraazacyclododecane-1,4,7,10-tetraacetato(4-)]gadolinate(1-)]hydrogen [Gadolinium complex I] | 690 s |  |  |
